What was measured:
HepG2 cells [1] = experiment: rtPCR TaqMan array of cancer pathway genes in treated HepG2 cells; assay type: cell-based, human; details: 6 h; CBD 17, CBC 23, CBN 20, 1:1:1 17, sorafenib 12 μg/ml
Procedure: rt-PCR: Target cancer gene pathways will be analyzed using a custom Taqman array card exploring 91 unique genes involved with a few cancer pathways.
Two million HepG2 cells in IMDM media with 20% FBS, and 1% ethanol were seeded in T75 flasks and incubated at 37° C., 7.5% CO2 until 70-80% confluent (approx. […]). The media were replenished with media containing individual cannabinoids (CBD 17 μg/ml, CBC 23 μg/ml, CBN 20 μg/ml) and cannabinoid mixture of CBD:CBC:CBN of 1:1:1 (17 μg/ml) and incubated for 6 hours prior to harvest. […] Untreated cells were included as a negative control Glyceraldehyde-3-phosphate dehydrogenase (GAPDH) was included as an endogenous control and used for normalization of the data.
RNA was extracted using Invitrogen's Dynabead mRNA DIRECT kit using the recommended protocol to provide 50 μL of a purified mRNA solution. […] of RT master mix was mixed into the mRNA solution and the mixture left to react at 37° C. for 60 minutes. Reverse transcriptase inactivation was performed at 95° C. for 5 minutes and the resulting cDNA samples were kept at 4° C. until use. Fifty-five microliters of TaqMan Fast Advance master mix were added to an equal amount of cDNA sample containing 1 μg/100 μl of cDNA, which was loaded into each card reservoir. The cards were centrifuged twice at 1200 RPM for 3 minutes in a Legend XFR centrifuge and the rtPCR reaction was conducted in a QuantStudio7 PCR instrument using the standard settings with 40 amplification cycles.
Assessment of cancer gene pathways were carried out using custom designed TaqMan array cards exploring 86 genes linked to numerous cancer related pathways. […] In addition to individual pathways, genes linked to specific cellular processes were also explored.

HepG2 cells [2] = experiment: In-cell Western-blot protein expression in treated HepG2 cells; assay type: cell-based, human; details: six hour treatment; CBD 17, CBC 23, CBN 20, Sorafenib 12, SCI-111 17, SCI-521 17 μg/ml
Procedure: In-cell Western-blot analysis: Protein expression was assessed by seeding 1000 HepG2 cells/well from cyro frozen stocks into 384 well optical bottom black culture plates from Thermo-Scientific (item 142761) in IMDM media with 20% FBS and 1% ethanol. […] After a six hour treatment, the cells were fixated with 4% formaldehyde for 15 minutes, permeated with 0.1% triton-x100 for 10 minutes, and left in blocking buffer (phosphate buffered saline (PBS) with 3% bovine serum albumin (BSA)) overnight at 4 degrees Celsius. The following day, the cells were rinsed with PBS, incubated with 25 μl PBS containing primary antibody (Table 1) for 3 hours at 25° C. Subsequently, the primary antibody was removed, cells were rinsed twice with PBS, and incubated with 25 μl of PBS containing the secondary antibody (Rabbit: Alexa Fluor 790 donkey anti-rabbit IgG (H+L) Lot 2409042; Mouse: Alexa Fluor 790 donkey anti-mouse IgG (H+L) Lot 2300923) at a concentration of 1:2000. Draq5 (1:2000) was added for normalization of data. After an hour incubation in the secondary antibody, the cells were rinsed with PBS and readings at 700 and 800 nm were acquired on a Licor Odyssey fluorescence imager with a resolution of 21 μm. Analysis was subsequently performed with Empiria Studio 2.1. A total of 5 samples were collected per antibody and the sample size was reduced to 3 for the statistical analysis.

CCCCCc1cc(O)c2c(c1)OC(C)(CCC=C(C)C)C=C2 (stereo not drawn) [CBC, Cannabichromene]
rtPCR Log2 fold change relative to untreated cells, AKT1 (PI3K/AKT/MTOR) (HepG2 cells [1]): −1.915 Log2 fold change | rtPCR Log2 fold change relative to untreated cells, APFAF1 (Apoptosis) (HepG2 cells [1]): −1.945 Log2 fold change | rtPCR Log2 fold change relative to untreated cells, BAD (Apoptosis) (HepG2 cells [1]): −2.917 Log2 fold change | rtPCR Log2 fold change relative to untreated cells, BAX (Apoptosis) (HepG2 cells [1]): −2.332 Log2 fold change | rtPCR Log2 fold change relative to untreated cells, BCL2 (Apoptosis) (HepG2 cells [1]): 3.95 Log2 fold change | rtPCR Log2 fold change relative to untreated cells, BCL2L1 (Apoptosis) (HepG2 cells [1]): −1.241 Log2 fold change | rtPCR Log2 fold change relative to untreated cells, CAMK1 (Ca signaling) (HepG2 cells [1]): −2.15 Log2 fold change | rtPCR Log2 fold change relative to untreated cells, CCND1 (Cell Cycle Arrest) (HepG2 cells [1]): −1.206 Log2 fold change | rtPCR Log2 fold change relative to untreated cells, CDK1 (Cell Cycle Arrest) (HepG2 cells [1]): −1.725 Log2 fold change | rtPCR Log2 fold change relative to untreated cells, CDK2 (Cell Cycle Arrest) (HepG2 cells [1]): −1.316 Log2 fold change | rtPCR Log2 fold change relative to untreated cells, CDK4 (Cell Cycle Arrest) (HepG2 cells [1]): −1.914 Log2 fold change | rtPCR Log2 fold change relative to untreated cells, CDK6 (Cell Cycle Arrest) (HepG2 cells [1]): −1.735 Log2 fold change | rtPCR Log2 fold change relative to untreated cells, CRK - p38 (Cellular Adhesion) (HepG2 cells [1]): −1.414 Log2 fold change | rtPCR Log2 fold change relative to untreated cells, CTNNB1 (Cellular Adhesion) (HepG2 cells [1]): −1.487 Log2 fold change | rtPCR Log2 fold change relative to untreated cells, ELK1 (Ca signaling) (HepG2 cells [1]): −3.143 Log2 fold change | rtPCR Log2 fold change relative to untreated cells, GSK3B (Cellular Adhesion) (HepG2 cells [1]): −1.728 Log2 fold change | rtPCR Log2 fold change relative to untreated cells, MAP1LC3A (MAP kinase) (HepG2 cells [1]): −2.006 Log2 fold change | rtPCR Log2 fold change relative to untreated cells, MAP2K1 (MAP kinase) (HepG2 cells [1]): −2.534 Log2 fold change | rtPCR Log2 fold change relative to untreated cells, MAPK8 (MAP kinase) (HepG2 cells [1]): −2.068 Log2 fold change | rtPCR Log2 fold change relative to untreated cells, MITF (Drug Resistance) (HepG2 cells [1]): −4.421 Log2 fold change | rtPCR Log2 fold change relative to untreated cells, MNT (Cell Cycle Arrest) (HepG2 cells [1]): −2.804 Log2 fold change | rtPCR Log2 fold change relative to untreated cells, MTOR (PI3K/AKT/MTOR) (HepG2 cells [1]): −1.847 Log2 fold change | rtPCR Log2 fold change relative to untreated cells, NOTCH1 (NOTCH) (HepG2 cells [1]): −1.949 Log2 fold change | rtPCR Log2 fold change relative to untreated cells, PAK3 (P21) (Cell Cycle Arrest) (HepG2 cells [1]): −1.643 Log2 fold change | rtPCR Log2 fold change relative to untreated cells, PIK3C2A (PI3K/AKT/MTOR) (HepG2 cells [1]): −1.77 Log2 fold change | rtPCR Log2 fold change relative to untreated cells, PIK3R5 (PI3K/AKT/MTOR) (HepG2 cells [1]): −1.821 Log2 fold change | rtPCR Log2 fold change relative to untreated cells, RAC1 (MAP kinase) (HepG2 cells [1]): −1.422 Log2 fold change | rtPCR Log2 fold change relative to untreated cells, RASA1 (MAP kinase) (HepG2 cells [1]): −1.307 Log2 fold change | rtPCR Log2 fold change relative to untreated cells, RASSF1 (MAP kinase) (HepG2 cells [1]): −1.813 Log2 fold change | rtPCR Log2 fold change relative to untreated cells, ROCK1 (Cellular Adhesion) (HepG2 cells [1]): −1.213 Log2 fold change | rtPCR Log2 fold change relative to untreated cells, SMAD2 (TGF signaling) (HepG2 cells [1]): −1.617 Log2 fold change | rtPCR Log2 fold change relative to untreated cells, SMAD3 (TGF signaling) (HepG2 cells [1]): −2.487 Log2 fold change | rtPCR Log2 fold change relative to untreated cells, STAT1 (JAK-STAT) (HepG2 cells [1]): −2.228 Log2 fold change | rtPCR Log2 fold change relative to untreated cells, STAT5A (JAK-STAT) (HepG2 cells [1]): −1.559 Log2 fold change | rtPCR Log2 fold change relative to untreated cells, SUFU (Hedgehog) (HepG2 cells [1]): −1.668 Log2 fold change | rtPCR Log2 fold change relative to untreated cells, TAZ (HIPPO) (HepG2 cells [1]): −1.874 Log2 fold change | rtPCR Log2 fold change relative to untreated cells, gene name not printed (Angiogenesis, row r45) (HepG2 cells [1]): −1.521 Log2 fold change | rtPCR Log2 fold change relative to untreated cells, gene name not printed (Cell Cycle Arrest, row r42) (HepG2 cells [1]): −2.312 Log2 fold change | rtPCR Log2 fold change relative to untreated cells, gene name not printed (Cellular Adhesion, row r57) (HepG2 cells [1]): −1.865 Log2 fold change | rtPCR Log2 fold change relative to untreated cells, gene name not printed (HIPPO, row r33) (HepG2 cells [1]): −1.568 Log2 fold change | rtPCR Log2 fold change relative to untreated cells, gene name not printed (PI3K/AKT/MTOR, row r20) (HepG2 cells [1]): −2.204 Log2 fold change | rtPCR Log2 fold change relative to untreated cells, gene name not printed (PI3K/AKT/MTOR, row r22) (HepG2 cells [1]): −2.291 Log2 fold change | rtPCR Log2 fold change relative to untreated cells, gene name not printed (Receptors, row r7) (HepG2 cells [1]): −2.51 Log2 fold change | Protein fold change, DVLD (Cellular Adhesion) (HepG2 cells [2]): 1.34 Fold change | Protein fold change, MEK (MAP kinase/PI3K) (HepG2 cells [2]): 1.22 Fold change | Protein fold change, MEK PO4 (MAP kinase/PI3K) (HepG2 cells [2]): 1.68 Fold change | Protein fold change, MET PO4 (Receptor) (HepG2 cells [2]): 1.80 Fold change | Protein fold change, PTEN PO4 (MAP kinase/PI3K) (HepG2 cells [2]): 1.40 Fold change | Protein fold change, TEAD2 (HIPPO signaling) (HepG2 cells [2]): 1.34 Fold change | Protein fold change, c-MYC (Apoptosis) (HepG2 cells [2]): 1.70 Fold change | Protein fold change, p53 (Apoptosis) (HepG2 cells [2]): 1.26 Fold change

Reference: patent US20250285714A1, “A PHARMACEUTICAL PLATFORM TECHNOLOGY FOR DRUG DISCOVERY AND CONSUMER HEALTH PRODUCT DEVELOPMENT” (SINOVEDA CANADA INC., priority 2021, published 2025)
